Patent US12329828B2, “Pyrimidine nucleoside compounds for fluorescence imaging and spectroscopy” (San Diego State University Foundation, priority 2020, dated 2025)
Values joined by “and” are separate entries in the source; they are usually repeats but may differ in a detail not shown here. Equal values may be shown once. Marks after values point to notes of the source that are not given here.

What was measured:
Assay type in all cases: physicochemical
[1] = One-photon single-molecule total internal reflection fluorescence (smTIRF) microscopy
From the text: The red-shifted absorption profile, high 2P brightness and predominance of the bright state made ABN a promising candidate for single-molecule detection via 1P excitation. […] Furthermore, these fluorescent puncta underwent single-step photobleaching under constant irradiation (FIG. 4B), consistent with the idea that ABN has suitable optical properties to be used as a single-molecule fluorescent nucleoside. By quantifying >2000 individual trajectories, we were able to determine the mean total detected photon value of 5300±1800 photons per molecule; furthermore, a mean of 1500±600 photons were detected per 100 ms integration from each molecule at a power density of 0.2 kW cm^−2.
Sample and slide preparation for IP method. ABN (10 mM, DMSO) was diluted into filtered (0.2 μm syringe filter, Whatman, 6780-1302) PBS (pH 7.4) to a working concentration of 100 nM. Borosilicate glass coverslips (VWR Int, 22×22 mm) were cleaned for 1 hour using an argon plasma (PDC-002, Harrick Plasma). Frame-Seal slide chambers (9×9 mm^2, Biorad, Hercules, CA) were affixed to the glass and the slides washed three times with filtered PBS (3×50 μL). The working solution of ABN (100 nM, 50 μL) was added to the slide and left for 3-minutes allowing for some of the ABN molecules to adsorb to the plasma-cleaned glass surface. […]
Single-molecule imaging. Single-molecule fluorescence imaging of ABN was performed on a bespoke total internal reflection fluorescence microscope using a 488 nm continuous wavelength diode laser (iBeamSMART, Toptica, 200.46 Wcm^−2). […] Fluorescence emission was collected by the same objective lens and separated from excitation light using a dichroic mirror (Di01-R405/488/561/635, Semrock) and passed through appropriate emission filters (BLP01-488R-25, FF01-520/44-25, Semrock). The fluorescence was then expanded (1.5×) and focused onto an electron-multiplying charge-coupled device (EMCCD, Evolve 512 Delta, Photometrics) with an electron multiplication gain of 250 ADU/photon operating in frame transfer mode. […]
Data analysis. A custom ImageJ macro was used to determine the total number of photons detected from single ABN emitters. The frames from single-molecule movies were summed and the pixel of peak intensity from each molecule was determined using the inbuilt ‘Find Maxima’ function (prominence threshold=20,000). The single emitters were selected from a 6×6 region surrounding the pixel of peak intensity and the total integrated intensity of the region was measured. […] The intensity per ABN emitter was converted from counts to photons detected by dividing the integrated signal above background by the total gain of the EMCCD (35.7 ADU/photon).

[2] = Steady-state absorption and fluorescence of the ABN nucleoside in solvents
From the text: Photophysical properties. Steady-state measurements. […] Owing to the conjugated push-pull system in the design of ABN, the absorption and emission wavelengths are the longest known for a FBA designed to be capable of Watson-Crick hydrogen bonding. Recorded emission spectra in water using excitation wavelengths ranging from 310-500 nm are nearly superposable, as are excitation spectra recorded for emission wavelengths spanning 500-650 nm. These observations support the predominance of a single tautomeric form in dilute, aqueous solution.
(§1) Quantum yields measurements. Experiments were measured in a quartz sub-micro cuvette (10 mm path length) purchased from Starnacell Inc. Steady state emission scans were recorded using a PTI QuantaMaster QM-400 and absorbances were measured on a Shimadzu UV-1700 Pharmaspec spectrometer. Quantum yield measurements were performed the comparative method of Williams et. al. and measured in duplicate, at minimum. Coumarin 153 in ethanol was used as a reference standard for all photophysical measurements. All measurements were taken with an absorbance range of 0.01-0.1. Subsequent dilutions were performed stepwise in order to obtain a minimum of six absorbance and emission spectra for quantum yield determinations.

[3] = Steady-state photophysical measurements of ABN in single-stranded and duplex DNA oligonucleotides
From the text: Next, we measured the fluorescence of ABN in single-stranded and duplex DNA oligonucleotides to determine how base pairing and stacking influence its photophysical properties (Table 2). ABN increases its fluorescence to Φem=0.50-0.53 in matched duplex DNA oligonucleotides when base paired with A and Φem=0.55 when the analogue is present in the hairpin loop of ODN1. The quantum yield is less, 0.40 and 0.29, in ODN1:ODN3 and ODN4:ODN6 respectively, in which ABN is base paired with G. In ODN7:ODN9 Φem,=0.55, slightly greater than when base paired with A. In all of these single-stranded and duplex sequences, ABN is brighter than any other known FBA when present in oligonucleotides.
as §1

[4] = Two-photon single-molecule characterization (fluorescence correlation spectroscopy)
From the text: Single-molecule fluorescence measurements. Given the very attractive bulk-level photophysical properties of ABN in solution, we next investigated its potential as a single-molecule probe. […] In a later study, the base analogue DMA^thaU was detected as a free nucleoside at the single-molecule level for the first time via multiphoton excitation with a brightness of […] per molecule following three-photon excitation (see Phys. Chem. Chem. Phys. 2018, 20 (45), 28487; and J. Phys. Chem. Lett. 2019, 10 (17), 5008). […] The 2P brightness was measured using fluorescence correlation spectroscopy (FCS) and found to match that of DMA^thaU at 7 kHz per molecule (FIG. 3B).
Sample preparation for 2P method. All experiments were done with a solution of approximately 100 nM of ABN in TRIS buffer (20 mM TRIS base) at a pH of 7.5. The molecules were initially dissolved in DMSO (at a concentration of 100 μM) and subsequently diluted in buffer. The TRIS buffer was prepared with ultrapure water (Direct Q3, Merck Millipore), TRIS-base (20 mM, Trizma base, BioUltra, Sigma-Aldrich) and 150 mM NaCl (analytical reagent grade, Fluka). The pH was adjusted to 7.5 with a HCl solution (Sigma-Aldrich). Prior to sample preparation, the buffer was filtered with activated charcoal (Darco, Fluca) and through a 0.2 μm filter (Milex, Merck).
Two photon microscope. The two-photon microscope is a homebuilt pulse-shaper assisted setup with a ultra-broadband Ti:Sa laser as light source, recently described (R. S. Fisher, et al., Phys. Chem. Chem. Phys., 20, 28487 (2018)). The excitation source was a broadband Ti: Sapphire laser with a repetition rate of 80 MHz and a spectrum centered on 800 nm with a FWHM of 135 nm (Vitara UBB, Coherent). […] Sample fluorescence was collected by the same objective and transmitted through a dichroic mirror (Chroma 675dcspxr) and a short pass filter (Semrock FF01-650/SP), split by a polarising beamsplitter cube and detected by two avalanche photodiodes (MPD PDM 50c and 1MPD $PD-050-CTB). The signal was subsequently detected by a hardware correlator (ALV-7002, ALV GmbH).

[5] = Melting temperatures of ABN-containing oligonucleotides (temperature-dependent circular dichroism); settings: for Tm: ABN-containing hairpin or duplex
From the text: Temperature-dependent circular dichroism measurements of all six duplexes are consistent with the B-DNA conformation with only minimal perturbation (Table 2). Except in the ODN1 hairpin, where ABN is expected to be mostly solvent exposed, the melting temperatures of the duplexes are typically somewhat depressed as compared with their natural counterparts. Duplex stability is lowest when ABN has 5′-G and 3′-C neighbors, an observation consistent with other tricyclic FBAs, especially those that are electron-rich. The observed melting temperatures provide little indication of whether ABN is a better T- or C-surrogate.

[6] = Steady-state photophysical measurements of ABN in single-stranded and duplex DNA oligonucleotides; settings: 1×PBS buffer (pH 7.4), different concentrations
[7] = Tm of ABN-containing duplex − Tm of corresponding duplex with canonical thymidine in place of ABN
[8] = ABN in DNA oligonucleotide, 1×PBS buffer (pH 7.4)

CCN(CC)c1ccc2cc3cc([C@H]4C[C@@H](O)[C@@H](CO)O4)c(=O)nc-3[nH]c2c1 [ABN, 8-(diethylamino)-3-((2R,4R,5R)-4-hydroxy-5-(hydroxymethyl)tetrahydrofuran-2-yl)benzo[b][1,8]naphthyridin-2(10H)-one]
mean total on-time ([1]; 0.2 kW cm^−2): 0.35 ± 0.18 s
mean number of photons detected per frame per single molecule ([1]; 488 nm, 0.2 kW cm^−2, 100 ms integration): 1500±600 photons/100 ms
mean total number of photons detected per single molecule ([1]; 488 nm, 0.2 kW cm^−2, log-normal fit, N=2402 molecules): 5300±1800 photons
brightness following 1P excitation ([1]; one-photon excitation): 15 kHz per molecule
λem, max [2]: 540 nm
ε · Φem (brightness) ([2]; 1,4-dioxane): 19000 M⁻¹ cm⁻¹
λem, max ([2]; 1,4-dioxane): 474 nm
λex, max ([2]; 1,4-dioxane): 420 nm
Φem ([2]; 1,4-dioxane, emission 474 nm): 0.64
Φem ([2]; 1 × PBS pH 7.4): 0.39
λex, max ([2]; 1 × PBS pH 7.4): 442 nm
ε · Φem (brightness) ([2]; H2O): 7800 M⁻¹ cm⁻¹
λem, max ([2]; H2O): 540 nm
λex, max ([2]; H2O): 442 nm
Φem ([2]; H2O, emission 540 nm): 0.39
red shift of absorption relative to closest competitors on brightness (pA, coumarin nucleoside) ([2]; aqueous solution): more than 50 nm
red shift of emission relative to closest competitors on brightness (pA, coumarin nucleoside) ([2]; aqueous solution): > 80 nm
Φem ([3]; in matched duplex DNA oligonucleotides, base paired with A): 0.50-0.53
bright/dark state by controlled dilution ([4]; FCS, controlled dilution): exclusively in a bright state
2P brightness (average count rate per molecule) ([4]; FCS, two-photon excitation, 100 nM in TRIS buffer, excitation power 11 mW): 7 kHz per molecule and 7±0.5 kHz per molecule
fraction of compound in a bright state ([4]; single-molecule fluorescence measurements): > 95%

ODN1: hairpin GCT TAG CAG GXT AGT GCT AAG C (SEQ ID NO: 1), X = ABN in loop (GCT TAG CAG GXTAGT GCT AAG C; ABN abasic-like nucleoside in loop, as printed in the source, key not given here)
Tm [5]: 63.6 ± 0.6 °C
ΔTm [5, 7]: +3.1 °C
Φem [3, 8]: 0.55
λabs, max [3, 8]: 450 nm
λem, max [3, 8]: 530 nm

ODN1:ODN2: duplex of ODN1 with ODN2 (HairpinA, SEQ ID NO: 4); ABN base paired with A (chain 1 GCTTAGCAGGNTAGTGCTAAGC; chain 2 GCTTAGCACTAACCTGCTAAGC; ABN nucleoside, chemistry not fully specified)
Tm [5]: 61.8 ± 0.4 °C
ΔTm [5, 7]: −4.7 °C
Φem [3, 8]: 0.53
λabs, max [3, 8]: 440 nm
λem, max [3, 8]: 530 nm

ODN1:ODN3: duplex of ODN1 with ODN3 (HairpinG, SEQ ID NO: 5); ABN base paired with G (chain 1 GCTTAGCAGGNTAGTGCTAAGC; chain 2 GCTTAGCACTAGCCTGCTAAGC; ABN nucleoside, chemistry not fully specified)
Tm [5]: 61.3 ± 0.6 °C
ΔTm ([5]; comparison with Tm of the corresponding natural duplex with a C:G base pair): +1.6^c ° C.
Φem [3, 8]: 0.40
λabs, max [3, 8]: 468 nm
λem, max [3, 8]: 523 nm

ODN4: 10-mer CGC AAX ATC G (SEQ ID NO: 2), X = ABN (ABN nucleoside, as printed in the source, key not given here)
Φem [3, 8]: 0.49
λabs, max [3, 8]: 452 nm
λem, max [3, 8]: 540 nm

ODN7: 10-mer CGC AGX CTC G (SEQ ID NO: 3), X = ABN (ABN nucleoside, as printed in the source, key not given here)
Φem [3, 8]: 0.62
λem, max [3, 8]: 532 nm
concentration dependence of absorption spectra [6]: concentration dependent
